Target: T1, IRE1α (Homo sapiens, UniProt O75460)
T1 construct: purchased SignalChem
Assay: In vitro FRET assay (XBP1 RNA probe cleavage by IRE1α)
Conditions: biochemical FRET assay, 2 nM IRE1α
Protocol: In vitro FRET assay was performed to evaluate the ability of select compounds to inhibit IRE1, the results of which are summarized in the following table.
To perform the in vitro FRET assay, 1× complete assay buffer (CAB; […], 50 mM sodium citrate pH 7.15, 1 mM magnesium acetate, 0.02% Tween 20) was used to dilute SignalChem IRE1α in protein to a final concentration of 2 nM. Selected compounds were serially diluted with DMSO in a non-binding black 384-well plate for a total of 15 μl in each well. 2 μl of the serially diluted compound or DMSO control were then added to new wells containing 98 μl of 1×CAB, for a total volume of 100 μl, 10 μl of which were then transferred to wells of a new plate. 5 μl of the diluted IRE1α was then added to each well. 5 μl of a […] XBP1 RNA probe was then added to each well. Fluorescence was then read over 30 minutes in kinetic mode (485/515 nm). Two RNA probes were used, XBP1 wildtype (CAUGUCCGCAGCACAUG; SEQ ID NO: 1) which is able to be spliced by active IRE1α or XBP1 mutant (CAUGUCCCCAGCACAUG; SEQ ID NO: 2) which is unable to be spliced. Each probe contained a 5′ 6-FAM modification and a 3′ IOWA Black FQ modification. […]

T1 sequence (O75460 19-977): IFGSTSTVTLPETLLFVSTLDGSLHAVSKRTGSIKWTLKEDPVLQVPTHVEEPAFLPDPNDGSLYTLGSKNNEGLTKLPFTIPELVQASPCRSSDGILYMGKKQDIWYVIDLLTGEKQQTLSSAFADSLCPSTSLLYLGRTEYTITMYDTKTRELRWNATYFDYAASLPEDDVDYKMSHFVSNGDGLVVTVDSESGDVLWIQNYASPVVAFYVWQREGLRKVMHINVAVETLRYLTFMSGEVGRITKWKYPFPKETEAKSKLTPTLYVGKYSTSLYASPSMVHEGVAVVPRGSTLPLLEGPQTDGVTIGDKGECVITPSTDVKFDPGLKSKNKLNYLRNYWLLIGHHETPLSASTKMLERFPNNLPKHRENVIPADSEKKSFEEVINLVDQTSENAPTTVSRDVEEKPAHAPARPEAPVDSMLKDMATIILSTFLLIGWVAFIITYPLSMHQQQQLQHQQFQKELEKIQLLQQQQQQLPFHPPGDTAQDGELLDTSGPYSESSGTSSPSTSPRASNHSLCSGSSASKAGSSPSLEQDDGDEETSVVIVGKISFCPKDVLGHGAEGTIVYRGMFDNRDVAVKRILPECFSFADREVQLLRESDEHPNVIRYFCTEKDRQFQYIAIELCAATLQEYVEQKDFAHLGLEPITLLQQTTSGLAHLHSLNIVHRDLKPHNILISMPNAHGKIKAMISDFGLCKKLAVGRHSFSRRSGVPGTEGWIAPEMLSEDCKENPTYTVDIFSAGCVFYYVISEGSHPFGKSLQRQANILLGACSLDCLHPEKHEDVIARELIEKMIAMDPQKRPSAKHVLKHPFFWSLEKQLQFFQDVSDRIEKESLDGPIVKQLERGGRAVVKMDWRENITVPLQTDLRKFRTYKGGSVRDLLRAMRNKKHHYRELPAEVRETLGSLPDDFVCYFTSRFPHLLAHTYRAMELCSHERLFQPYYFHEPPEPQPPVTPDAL

| EC50 [µM] | Compound |
| --- | --- |
| > 100 | Cn1nc(NC(=O)Nc2ccc(CN3CCC(c4ccccc4)CC3)c(C(F)(F)F)c2)cc1-c1ccc2ccncc2c1 [Compound 40, 1-(5-(isoquinolin-7-yl)-1-methyl-1H-pyrazol-3-yl)-3-(4-((4-phenylpiperidin-1-yl)methyl)-3-(trifluoromethyl)phenyl)urea] |
| ≤ 5 | Cc1nc(NC(=O)Nc2ccc(CN3CCN(C)CC3)c(C(F)(F)F)c2)[nH]c1-c1ccc2ccncc2c1 [Compound 46, 1-(5-(isoquinolin-7-yl)-4-methyl-4H-imidazol-2-yl)-3-(4-((4-methylpiperazin-1-yl)methyl)-3-(trifluoromethyl)phenyl)urea] |
| > 100 | CN1CCN(Cc2ccc(NC(=O)Nc3cc(-c4cccn5ccnc45)n(C)n3)cc2C(F)(F)F)CC1 [Compound 5] |
| 5 to 50 | CN1CCN(Cc2ccc(NC(=O)Cc3cc(-c4ccc5ccncc5c4)n(C)n3)cc2C(F)(F)F)CC1 [Compound 31, 2-(5-(isoquinolin-7-yl)-1-methyl-1H-pyrazol-3-yl)-N-(4-((4-methylpiperazin-1-yl)methyl)-3-(trifluoromethyl)phenyl)acetamide] |
| 5 to 50 | CN1CCN(Cc2ccc(NC(=O)Cc3cc(-c4ccc5nc(N)ncc5c4)n(C)n3)cc2C(F)(F)F)CC1 [Compound 33, 2-(5-(2-aminoquinazolin-6-yl)-1-methyl-1H-pyrazol-3-yl)-N-(4-((4-methylpiperazin-1-yl)methyl)-3-(trifluoromethyl)phenyl)acetamide] |
| 5 to 50 | Cc1nc(NC(=O)Nc2ccc(CN3CCN(C)CC3)c(C(F)(F)F)c2)n(C)c1-c1ccc2cc(N)ncc2c1 [Compound 50, 1-(5-(3-aminoisoquinolin-7-yl)-1,4-dimethyl-1H-imidazol-2-yl)-3-(4-((4-methylpiperazin-1-yl)methyl)-3-(trifluoromethyl)phenyl)urea] |
| ≤ 5 | CN1CCN(Cc2ccc(NC(=O)Nc3cc(-c4ccc5cc(N)ncc5c4)n(C)n3)cc2C(F)(F)F)CC1 [Compound 26, 1-(5-(3-aminoisoquinolin-7-yl)-1-methyl-1H-pyrazol-3-yl)-3-(4-((4-methylpiperazin-1-yl)methyl)-3-(trifluoromethyl)phenyl)urea] |
| > 100 | Cn1nc(NS(=O)(=O)c2ccccc2)cc1-c1ccc2cc(N)ncc2c1 [Compound 66, N-(5-(3-aminoisoquinolin-7-yl)-1-methyl-1H-pyrazol-3-yl)benzenesulfonamide] |
| 5 to 50 | CN1CCC(=Cc2ccc(NC(=O)Nc3cc(-c4ccc5cc(N)ncc5c4)n(C)n3)cc2C(F)(F)F)CC1 [Compound 71, 1-(5-(3-aminoisoquinolin-7-yl)-1-methyl-1H-pyrazol-3-yl)-3-(4-((1-methylpiperidin-4-ylidene)methyl)-3-(trifluoromethyl)phenyl)urea] |
| ≤ 5 | CN1CCN(Cc2ccc(NC(=O)Nc3ccc4oc(-c5cnn6ccccc56)nc4c3)cc2C(F)(F)F)CC1 [Compound 16, 1-(4-((4-methylpiperazin-1-yl)methyl)-3-(trifluoromethyl)phenyl)-3-(2-(pyrazolo[1,5-a]pyridin-3-yl)benzo[d]oxazol-5-yl)urea] |
| > 100 | CN1CCN(Cc2ccc(NC(=O)Nc3ccc4oc(-c5cccnc5)nc4c3)cc2C(F)(F)F)CC1 [Compound 15, 1-(4-((4-methylpiperazin-1-yl)methyl)-3-(trifluoromethyl)phenyl)-3-(2-(pyridin-3-yl)benzo[d]oxazol-5-yl)urea] |
| > 100 | CN1CCN(Cc2ccc(NC(=O)Nc3cc(-c4cccc5nccnc45)n(C)n3)cc2C(F)(F)F)CC1 [Compound 6] |
| > 100 | CN1COc2cc(NC(=O)Nc3cc(-c4ccc5ccncc5c4)n(C)n3)ccc2C1 [Compound 62, 1-(5-(isoquinolin-7-yl)-1-methyl-1H-pyrazol-3-yl)-3-(3-methyl-3,4-dihydro-2H-benzo[e][1,3]oxazin-7-yl)urea] |
| > 100 | Cn1nc(NC(=O)Nc2ccccc2)cc1-c1ccc2ccncc2c1 [Compound 64, 1-(5-(isoquinolin-7-yl)-1-methyl-1H-pyrazol-3-yl)-3-phenylurea] |
| 50 to 100 | Cn1nc(Nc2c(NC3CCCC3)c(=O)c2=O)cc1-c1ccc2nc(N)ncc2c1 [Compound 76, 3-((5-(2-aminoquinazolin-6-yl)-1-methyl-1H-pyrazol-3-yl)amino)-4-(cyclopentylamino)cyclobut-3-ene-1,2-dione] |
| > 100 | Cn1nc(NC(=O)Nc2ccc(CN3CCOCC3)c(C(F)(F)F)c2)cc1-c1ccc2ccncc2c1 [Compound 39, 1-(5-(isoquinolin-7-yl)-1-methyl-1H-pyrazol-3-yl)-3-(4-(morpholinomethyl)-3-(trifluoromethyl)phenyl)urea] |

| EC50 [µM] | Compound |
| --- | --- |
| 5 to 50 | O=C(/C=C\c1ccccc1)Nc1ccc2oc(-c3cccnc3)nc2c1 [Compound 60, (Z)-3-phenyl-N-(2-(pyridin-3-yl)benzo[d]oxazol-5-yl)acrylamide] |
| > 100 | O=C(Nc1ccccc1)Nc1ccc2oc(-c3cccnc3)nc2c1 [Compound 56, 1-phenyl-3-(2-(pyridin-3-yl)benzo[d]oxazol-5-yl)urea] |
| > 100 | COc1ccccc1NC(=O)Nc1cc(-c2ccc3ccncc3c2)n(C)n1 [Compound 65, 1-(5-(isoquinolin-7-yl)-1-methyl-1H-pyrazol-3-yl)-3-(2-methoxyphenyl)urea] |
| > 100 | CSc1ccccc1NC(=O)Nc1cc(-c2ccc3ccncc3c2)n(C)n1 [Compound 68, 1-(5-(isoquinolin-7-yl)-1-methyl-1H-pyrazol-3-yl)-3-(2-(methylthio)phenyl)urea] |
| ≤ 5 | CN1CCN(Cc2ccc(Nc3c(Nc4cc(-c5ccc6ccncc6c5)n(C)n4)c(=O)c3=O)cc2C(F)(F)F)CC1 [Compound 73, 3-((5-(isoquinolin-7-yl)-1-methyl-1H-pyrazol-3-yl)amino)-4-((4-((4-methylpiperazin-1-yl)methyl)-3-(trifluoromethyl)phenyl)amino) cyclobut-3-ene-1,2-dione] |
| > 100 | CN1CCN(Cc2ccc(NC(=O)Nc3cc(-c4ccc5oncc5c4)n(C)n3)cc2C(F)(F)F)CC1 [Compound 3, 1-(5-(benzo[d]isoxazol-5-yl)-1-methyl-1H-pyrazol-3-yl)-3-(4-((4-methylpiperazin-1-yl)methyl)-3-(trifluoromethyl)phenyl)urea] |
| > 100 | CN1CCN(Cc2ccc(C(=O)Nc3cc(-c4ccc5cc(N)ncc5c4)n(C)n3)c3ccccc23)CC1 [Compound 61, N-(5-(3-aminoisoquinolin-7-yl)-1-methyl-1H-pyrazol-3-yl)-4-((4-methylpiperazin-1-yl)methyl)-1-naphthamide] |
| > 100 | CN1CCN(Cc2ccc(NC(=O)Nc3cc(-c4ccn5ccnc5c4)n(C)n3)cc2C(F)(F)F)CC1 [Compound 4, 1-(5-(imidazo[1,2-a]pyridin-7-yl)-1-methyl-1H-pyrazol-3-yl)-3-(4-((4-methylpiperazin-1-yl)methyl)-3-(trifluoromethyl)phenyl)urea] |
| 5 to 50 | O=C(Nc1cccc(C(F)(F)F)c1)Nc1ccc2oc(-c3cccnc3)nc2c1 [Compound 57, 1-(2-(pyridin-3-yl)benzo[d]oxazol-5-yl)-3-(3-(trifluoromethyl)phenyl)urea] |
| > 100 | Cn1nc(NC(=O)Nc2ccc(CN3CCCCC3)c(C(F)(F)F)c2)cc1-c1ccc2ccncc2c1 [Compound 42, 1-(5-(isoquinolin-7-yl)-1-methyl-1H-pyrazol-3-yl)-3-(4-(piperidin-1-ylmethyl)-3-(trifluoromethyl)phenyl)urea] |
| 5 to 50 | CN1CCN(Cc2ccc(NC(=O)Nc3cc(-c4cnc5ccccc5c4)n(C)n3)cc2C(F)(F)F)CC1 [Compound 25, 1-(1-methyl-5-(quinolin-3-yl)-1H-pyrazol-3-yl)-3-(4-((4-methylpiperazin-1-yl)methyl)-3-(trifluoromethyl)phenyl)urea] |
| 5 to 50 | CN1CCN(Cc2ccc(NC(=O)Nc3n[nH]c4cc(-c5cnc(N)nc5)ccc34)cc2C(F)(F)F)CC1 [Compound 11, 1-(6-(2-aminopyrimidin-5-yl)-1H indazol-3-yl)-3-(4-((4-methylpiperazin-1-yl)methyl)-3-(trifluoromethyl)phenyl)urea] |
| ≤ 5 | CN1CCN(Cc2ccc(NC(=O)Nc3cc(-c4ccc5nc(N)nc(O)c5c4)n(C)n3)cc2C(F)(F)F)CC1 [Compound 27, 1-(5-(2-amino-4-hydroxyquinazolin-6-yl)-1-methyl-1H-pyrazol-3-yl)-3-(4-((4-methylpiperazin-1-yl)methyl)-3-(trifluoromethyl)phenyl)urea] |
| ≤ 5 | CN1CCN(Cc2ccc(NC(=O)Nc3cc(-c4ccc5ncnc(N)c5c4)n(C)n3)cc2C(F)(F)F)CC1 [Compound 28, 1-(5-(4-aminoquinazolin-6-yl)-1-methyl-1H-pyrazol-3-yl)-3-(4-((4-methylpiperazin-1-yl)methyl)-3-(trifluoromethyl)phenyl)urea] |
| 50 to 100 | CN1CCN(Cc2ccc(NC(=O)Nc3cc(-c4ccc5ccncc5c4)n(C)n3)c(-c3cnn(C)c3)c2)CC1 [Compound 21, 1-(5-(isoquinolin-7-yl)-1-methyl-1H-pyrazol-3-yl)-3-(2-(1-methyl-1H-pyrazol-4-yl)-4-((4-methylpiperazin-1-yl)methyl)phenyl)urea] |
| ≤ 5 | CN1CCN(Cc2ccc(NC(=O)Nc3nn(C)c4cc(-c5cccnc5)ccc34)cc2C(F)(F)F)CC1 [Compound 1, 1-(1-methyl-6-(pyridin-3-yl)-1H-indazol-3-yl)-3-(4-((4-methylpiperazin-1-yl)methyl)-3-(trifluoromethyl)phenyl)urea] |

— patent US10125123B2, “Small molecule IRE1-α inhibitors” (Cornell University, priority 2016, dated 2018)
